Source: PubChem BioAssay (NCI)
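GI50 marks 50% less growth. TGI: concentration producing complete growth inhibition.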

Tests used:
Assay in all cases: NCI anticancer screen, dose series, 384-well format
786-0 renal = test system: 786-0 renal
A498 renal = test system: A498 renal
A549 NSCLC = test system: A549 NSCLC
ACHN renal = test system: ACHN renal
BT-549 breast = test system: BT-549 breast
CAKI-1 renal = test system: CAKI-1 renal
CCRF-CEM leukemia = test system: CCRF-CEM leukemia
COLO 205 colon = test system: COLO 205 colon
DU-145 prostate = test system: DU-145 prostate
EKVX NSCLC = test system: EKVX NSCLC
HCT-116 colon = test system: HCT-116 colon
HCT-15 colon = test system: HCT-15 colon
HOP-62 NSCLC = test system: HOP-62 NSCLC
HOP-92 NSCLC = test system: HOP-92 NSCLC
HS 578T breast = test system: HS 578T breast
HT29 colon = test system: HT29 colon
IGROV1 ovarian = test system: IGROV1 ovarian
K-562 leukemia = test system: K-562 leukemia
KM12 colon = test system: KM12 colon
LOX IMVI melanoma = test system: LOX IMVI melanoma
M14 melanoma = test system: M14 melanoma
MALME-3M melanoma = test system: MALME-3M melanoma
MCF7 breast = test system: MCF7 breast
MDA-MB-231 breast = test system: MDA-MB-231 breast
MDA-MB-435 melanoma = test system: MDA-MB-435 melanoma
MDA-MB-468 breast = test system: MDA-MB-468 breast
MOLT-4 leukemia = test system: MOLT-4 leukemia
NCI-H226 lung = test system: NCI-H226 lung
NCI-H23 lung = test system: NCI-H23 lung
NCI-H322M lung = test system: NCI-H322M lung
NCI-H460 NSCLC = test system: NCI-H460 NSCLC
NCI-H522 lung = test system: NCI-H522 lung
NCI/ADR-RES ovarian = test system: NCI/ADR-RES ovarian
OVCAR-3 ovarian = test system: OVCAR-3 ovarian
OVCAR-4 ovarian = test system: OVCAR-4 ovarian
OVCAR-5 ovarian = test system: OVCAR-5 ovarian
OVCAR-8 ovarian = test system: OVCAR-8 ovarian
PC-3 prostate = test system: PC-3 prostate
RPMI-8226 leukemia = test system: RPMI-8226 leukemia
RXF 393 renal = test system: RXF 393 renal
SF-268 CNS = test system: SF-268 CNS
SF-295 CNS = test system: SF-295 CNS
SF-539 CNS = test system: SF-539 CNS
SK-MEL-28 melanoma = test system: SK-MEL-28 melanoma
SK-MEL-5 melanoma = test system: SK-MEL-5 melanoma
SK-OV-3 ovarian = test system: SK-OV-3 ovarian
SN12C renal = test system: SN12C renal
SNB-19 CNS = test system: SNB-19 CNS
SNB-75 CNS = test system: SNB-75 CNS
SR leukemia = test system: SR leukemia
SW-620 colon = test system: SW-620 colon
T-47D breast = test system: T-47D breast
TK-10 renal = test system: TK-10 renal
U251 glioblastoma = test system: U251 glioblastoma
UACC-257 melanoma = test system: UACC-257 melanoma
UO-31 renal = test system: UO-31 renal
HL-60(TB) leukemia = test system: HL-60(TB) leukemia

C[C@H]1CNC(=O)c2cnn3ccc(nc23)N[C@H](C)c2cc(F)ccc2O1
GI50 ([…]-0 renal): 1290 nM
TGI (786-0 renal): 2660 nM
GI50 (A498 renal): 779 nM
TGI (A498 renal): 2100 nM
GI50 (A549 NSCLC): 439 nM
TGI (A549 NSCLC): 10800 nM
GI50 (ACHN renal): 511 nM
TGI (ACHN renal): 2650 nM
GI50 (BT-549 breast): 1070 nM
TGI (BT-549 breast): 2300 nM
GI50 (CAKI-1 renal): 829 nM
TGI (CAKI-1 renal): 2090 nM
GI50 (CCRF-CEM leukemia): 189 nM
TGI (CCRF-CEM leukemia): 345 nM
GI50 (COLO 205 colon): 1430 nM
TGI (COLO 205 colon): 2930 nM
GI50 (DU-145 prostate): 1430 nM
TGI (DU-145 prostate): 5040 nM
GI50 (EKVX NSCLC): 469 nM
TGI (EKVX NSCLC): 3820 nM
GI50 (HCT-116 colon): 477 nM
TGI (HCT-116 colon): 11100 nM
GI50 (HCT-15 colon): 1360 nM
TGI (HCT-15 colon): 4600 nM
GI50 (HOP-62 NSCLC): 1120 nM
TGI (HOP-62 NSCLC): 2850 nM
GI50 (HOP-92 NSCLC): 516 nM
TGI (HOP-92 NSCLC): 1980 nM
GI50 (HS 578T breast): 249 nM
TGI (HS 578T breast): 1250 nM
GI50 (HT29 colon): 776 nM
TGI (HT29 colon): 13400 nM
GI50 (IGROV1 ovarian): 229 nM
TGI (IGROV1 ovarian): 911 nM
GI50 (K-562 leukemia): 451 nM
TGI (K-562 leukemia): 1850 nM
TGI (KM12 colon): 10100 nM
GI50 (LOX IMVI melanoma): 428 nM
TGI (LOX IMVI melanoma): 1450 nM
GI50 (M14 melanoma): 31700 nM
TGI (M14 melanoma): > 100000 nM
GI50 (MALME-3M melanoma): 4210 nM
TGI (MALME-3M melanoma): 30000 nM
GI50 (MCF7 breast): 429 nM
TGI (MCF7 breast): 15200 nM
GI50 (MDA-MB-231 breast): 433 nM
TGI (MDA-MB-231 breast): 2460 nM
GI50 (MDA-MB-435 melanoma): 16100 nM
TGI (MDA-MB-435 melanoma): 49800 nM
GI50 (MDA-MB-468 breast): 629 nM
TGI (MDA-MB-468 breast): 2010 nM
GI50 (MOLT-4 leukemia): 180 nM
TGI (MOLT-4 leukemia): 342 nM
GI50 (NCI-H226 lung): 525 nM
TGI (NCI-H226 lung): 2000 nM
GI50 (NCI-H23 lung): 521 nM
TGI (NCI-H23 lung): 6750 nM
GI50 (NCI-H322M lung): 1140 nM
TGI (NCI-H322M lung): 6010 nM
GI50 (NCI-H460 NSCLC): 391 nM
TGI (NCI-H460 NSCLC): 1690 nM
GI50 (NCI-H522 lung): 463 nM
TGI (NCI-H522 lung): 2280 nM
GI50 (NCI/ADR-RES ovarian): 10600 nM
TGI (NCI/ADR-RES ovarian): 22600 nM
GI50 (OVCAR-3 ovarian): 414 nM
TGI (OVCAR-3 ovarian): 2030 nM
GI50 (OVCAR-4 ovarian): 687 nM
TGI (OVCAR-4 ovarian): 7350 nM
GI50 (OVCAR-5 ovarian): 527 nM
TGI (OVCAR-5 ovarian): 2910 nM
GI50 (OVCAR-8 ovarian): 1650 nM
TGI (OVCAR-8 ovarian): 4080 nM
GI50 (PC-3 prostate): 668 nM
TGI (PC-3 prostate): 4010 nM
GI50 (RPMI-8226 leukemia): 1610 nM
TGI (RPMI-8226 leukemia): 3760 nM
GI50 (RXF 393 renal): 187 nM
TGI (RXF 393 renal): 498 nM
GI50 (SF-268 CNS): 374 nM
TGI (SF-268 CNS): 1550 nM
GI50 (SF-295 CNS): 243 nM
TGI (SF-295 CNS): 1770 nM
GI50 (SF-539 CNS): 1020 nM
TGI (SF-539 CNS): 2230 nM
GI50 (SK-MEL-28 melanoma): 17100 nM
TGI (SK-MEL-28 melanoma): 77100 nM
GI50 (SK-MEL-5 melanoma): 6620 nM
TGI (SK-MEL-5 melanoma): 20500 nM
GI50 (SK-OV-3 ovarian): 522 nM
TGI (SK-OV-3 ovarian): 2930 nM
GI50 (SN12C renal): 664 nM
TGI (SN12C renal): 2260 nM
GI50 (SNB-19 CNS): 1830 nM
TGI (SNB-19 CNS): 7860 nM
GI50 (SNB-75 CNS): 209 nM
TGI (SNB-75 CNS): 816 nM
GI50 (SR leukemia): 37.2 nM
TGI (SR leukemia): 116 nM
GI50 (SW-620 colon): 444 nM
TGI (SW-620 colon): 2850 nM
GI50 (T-47D breast): 1480 nM
TGI (T-47D breast): 15800 nM
GI50 (TK-10 renal): 635 nM
TGI (TK-10 renal): 2100 nM
GI50 (U251 glioblastoma): 2290 nM
TGI (U251 glioblastoma): 11400 nM
GI50 (UACC-257 melanoma): 12200 nM
TGI (UACC-257 melanoma): 37400 nM
GI50 (UO-31 renal): 1360 nM
TGI (UO-31 renal): 2800 nM

Cc1cc(OCCOCCC(F)(F)P(=O)(O)O)ccc1CCc1cnc2c(N)nc3cc(CCC(=O)O)ccc3c2c1
GI50 (CCRF-CEM leukemia): 37700 nM
TGI (CCRF-CEM leukemia): > 100000 nM
GI50 (HL-60(TB) leukemia): > 100000 nM
TGI (HL-60(TB) leukemia): > 100000 nM
GI50 (HOP-92 NSCLC): > 100000 nM
TGI (HOP-92 NSCLC): > 100000 nM
GI50 (K-562 leukemia): 34300 nM
TGI (K-562 leukemia): > 100000 nM
GI50 (MOLT-4 leukemia): 58100 nM
TGI (MOLT-4 leukemia): > 100000 nM
GI50 (NCI-H23 lung): 7120 nM
GI50 (OVCAR-3 ovarian): > 100000 nM
TGI (OVCAR-3 ovarian): > 100000 nM
GI50 (PC-3 prostate): > 100000 nM
TGI (PC-3 prostate): > 100000 nM
GI50 (RPMI-8226 leukemia): 99700 nM
TGI (RPMI-8226 leukemia): > 100000 nM
GI50 (SN12C renal): > 100000 nM
TGI (SN12C renal): > 100000 nM
GI50 (SNB-19 CNS): > 100000 nM
TGI (SNB-19 CNS): > 100000 nM
GI50 (SR leukemia): 9350 nM
TGI (SR leukemia): 29300 nM
